Our source for the IC50 values is ChEMBL document CHEMBL5608184, “Discovery and mechanistic insights into thieno[3,2-d]pyrimidine and heterocyclic fused pyrimidines inhibitors targeting tubulin for cancer therapy” (Eur J Med Chem, 2024).

The subject of one assay is A2780. Put plainly: Antiproliferative activity against human A2780 cells incubated for 48 hrs by CCK8 assay. Format: functional, cell-based. As to conditions: A2780, 48 h.
Another assay relates to SK-OV-3. The experiment in a line: Antiproliferative activity against human SK-OV-3 cells incubated for 48 hrs by CCK8 assay. Format: functional, cell-based. As to conditions: SK-OV-3, 48 h. Background: Tetrazolium dyes change colour on reduction, which living cells bring about.
For the next assay, the system named is HCC827. Put plainly: Antiproliferative activity against human HCC827 cells incubated for 48 hrs by CCK8 assay. In kind it is functional, cell-based. As to conditions: HCC827, 48 h.
The test system of a further assay is A549. Put plainly: cells. The conditions noted are these: Homo sapiens, A549, 48 h.

What is called IC50 is the point on the concentration scale where inhibition reaches its midpoint. High values mean weaker potency in that assay, low ones greater potency in that assay.

Description for A549: Antiproliferative activity against human A549 cells incubated for 48 hrs by CCK8 assay

As for `COc1ccc(/C=C\c2cc(OC)c(OC)c(OC)c2)cc1O` [COMBRETASTATIN A4], the IC50 with A2780 amounted to 0.00215 µM; in the assay on SK-OV-3, 0.00142 µM; with HCC827 it was 0.00225 µM; in the assay on A549, 0.00257 µM.
As to `COc1ccc(N(C)c2nc(Cl)nc3ccsc23)cc1F`, the IC50 with A2780 is 0.00316 µM; in the assay with SK-OV-3, 0.00206 µM; in the assay with HCC827, 0.00165 µM; in the assay on A549 it was 0.00257 µM.
For `CN(c1ccc2c(c1)OCO2)c1nc(Cl)nc2ccsc12`, the IC50 in the assay on A2780 is 0.411 µM; in the assay with SK-OV-3, 0.172 µM; with HCC827 it was 0.308 µM; in the assay on A549, 0.634 µM.
As to `CN(c1ccccc1)c1nc(Cl)nc2ccsc12`, the IC50 in the assay on A2780, in the assay with SK-OV-3, in the assay on HCC827 and in the assay on A549 was greater than 1 µM in each case.
`CCNc1nc(N(C)c2ccc(OC)cc2)c2sccc2n1`: the IC50 is 0.0509 µM in the assay with A2780, 0.0529 µM in the assay on SK-OV-3, 0.0318 µM in the assay on HCC827 and 0.16 µM in the assay with A549.
`COc1ccc(N(C)c2nc(Cl)nc3ccccc23)cc1`: the IC50 worked out at 0.00109 µM with A2780, 0.00078 µM in the assay on SK-OV-3, 0.00125 µM with HCC827 and 0.00128 µM with A549.
The matching figures for `COc1ccc(N(C)c2nc(C)nc3ccsc23)cc1`: 0.0157 µM, 0.00622 µM, 0.00902 µM and 0.0148 µM.
Take `COc1ccc(N(C)c2nc(Cl)nc3cc[nH]c23)cc1`: the IC50 in the assay on A2780 amounted to 0.0226 µM; with SK-OV-3, 0.00902 µM; with HCC827, 0.0186 µM; in the assay with A549 it was 0.0204 µM.
Regarding `COc1cccc(N(C)c2nc(Cl)nc3ccsc23)c1`, the IC50 in the assay on A2780 came to 0.225 µM; in the assay with SK-OV-3, 0.0469 µM; with HCC827, 0.14 µM; with A549 it was 0.388 µM.
Take `COc1ccc(N(C)c2nc(NC3CCCC3)nc3ccsc23)cc1`: the IC50 in the assay on A2780 was greater than 1 µM; in the assay on SK-OV-3, 0.741 µM; with HCC827 it was greater than 1 µM; with A549, greater than 1 µM.
Turning to `COc1c(F)cc(N(C)c2nc(Cl)nc3ccsc23)cc1F`, the half-maximal inhibitory concentration (IC50) amounted to 0.119 µM in the assay with A2780, 0.0316 µM in the assay on SK-OV-3, 0.052 µM with HCC827 and 0.238 µM in the assay on A549.
`COc1ccc(N(C)c2nc(Cl)nc3c2ccn3C)cc1`: the IC50 with A2780 was 0.0734 µM; in the assay on SK-OV-3, 0.0232 µM; with HCC827 it was 0.054 µM; in the assay on A549 it was 0.12 µM.
Regarding `COc1ccc(N(C)c2nc(N3CCC3)nc3ccsc23)cc1`, the IC50 was 0.307 µM in the assay on A2780, 0.0587 µM in the assay on SK-OV-3, 0.228 µM with HCC827 and 0.699 µM in the assay on A549.
For the molecule `COc1ccc2c(c1)CCN2c1nc(Cl)nc2ccsc12`, the IC50 in the assay on A2780, in the assay with SK-OV-3, in the assay with HCC827 and with A549 was greater than 1 µM throughout.
Take `COc1ccc2c(c1)CCCN2c1nc(Cl)nc2ccsc12`: the IC50 with A2780 was found to be 0.00468 µM; with SK-OV-3, 0.00272 µM; with HCC827, 0.00225 µM; in the assay on A549, 0.00513 µM.
Consider `CN(c1ccc2c(ccn2C)c1)c1nc(Cl)nc2ccsc12`, for which the IC50 in the assay with A2780 was 0.00156 µM; in the assay on SK-OV-3, 0.00122 µM; with HCC827, 0.00156 µM; in the assay with A549 it was 0.00172 µM.
As for `COc1ccc(N(C)c2nc(N3CCN(C)CC3)nc3ccsc23)cc1`, the IC50 in the assay on A2780, in the assay with SK-OV-3, in the assay with HCC827 and in the assay on A549 was greater than 1 µM throughout.
For `Cc1nn(C)c2ccc(N(C)c3nc(Cl)nc4ccsc34)cc12`, the IC50 is 0.028 µM with A2780, 0.0141 µM in the assay on SK-OV-3, 0.0198 µM in the assay with HCC827 and 0.0276 µM in the assay with A549.
Take `COc1ccc(N(C)c2nc(N(C)C)nc3ccsc23)cc1`: the IC50 is 0.225 µM in the assay with A2780, 0.0507 µM in the assay on SK-OV-3, 0.13 µM in the assay on HCC827 and 0.285 µM in the assay on A549.
`COc1ccc(N(C)c2nc(N3CCCC3)nc3ccsc23)cc1`: the IC50 in the assay with A2780, in the assay with SK-OV-3, in the assay on HCC827 and in the assay on A549 was greater than 1 µM throughout.
In the case of `COc1ccc(N(C)c2nc(Cl)nc3[nH]ccc23)cc1`, the IC50 worked out at 0.225 µM in the assay on A2780, 0.0393 µM in the assay with SK-OV-3, 0.225 µM in the assay with HCC827 and 0.588 µM in the assay with A549.
With `COc1ccc(Sc2nc(Cl)nc3ccsc23)cc1`, the IC50 in the assay with A2780 is 0.0311 µM; in the assay with SK-OV-3, 0.038 µM; with HCC827, 0.0294 µM; in the assay with A549 it was 0.0781 µM.
Take `CN(c1ccc(C(F)F)cc1)c1nc(Cl)nc2ccsc12`: the IC50 in the assay with A2780, in the assay with SK-OV-3, in the assay with HCC827 and in the assay with A549 was greater than 1 µM each time.
As to `CN(c1ccc(F)cc1)c1nc(Cl)nc2ccsc12`, the IC50 in the assay on A2780, in the assay on SK-OV-3, in the assay with HCC827 and in the assay with A549 was greater than 1 µM throughout.
`COc1cc(OC)cc(N(C)c2nc(Cl)nc3ccsc23)c1`: the IC50 in the assay with A2780 is 0.651 µM; in the assay with SK-OV-3 it was 0.265 µM; in the assay on HCC827, 0.431 µM; with A549, 0.785 µM.
Regarding `CN(c1ccc(C(F)(F)F)cc1)c1nc(Cl)nc2ccsc12`, the IC50 with A2780, in the assay on SK-OV-3, with HCC827 and in the assay on A549 was greater than 1 µM in each case.
Consider `COc1ccc(N(C)c2nc(Cl)nc3sccc23)cc1`, for which the IC50 in the assay with A2780 amounted to 0.00544 µM; in the assay on SK-OV-3, 0.00495 µM; with HCC827, 0.00516 µM; with A549, 0.00632 µM.
As to `COc1ccc(N(C)c2nc(NC3CCCCC3)nc3ccsc23)cc1`, the IC50 with A2780, in the assay with SK-OV-3, in the assay on HCC827 and with A549 was greater than 1 µM throughout.
As to `COc1ccc(N(C)c2nc(NC3CCC3)nc3ccsc23)cc1`, the IC50 was found to be 0.119 µM in the assay with A2780, 0.0919 µM in the assay on SK-OV-3, 0.113 µM with HCC827 and 0.211 µM in the assay with A549.
As to `COc1ccc(N(C)c2nc(NC3CC3)nc3ccsc23)cc1`, the IC50 amounted to 0.0304 µM in the assay on A2780, 0.0253 µM with SK-OV-3, 0.0198 µM in the assay on HCC827 and 0.0732 µM in the assay on A549.
On the same counts, the results for `COc1cc(N(C)c2nc(Cl)nc3ccsc23)cc(OC)c1OC` are greater than 1 µM, greater than 1 µM, greater than 1 µM and greater than 1 µM.
As for `COc1ccc(N(C)c2nc(N)nc3ccsc23)cc1`, the IC50 with A2780 is 0.0611 µM; with SK-OV-3 it was 0.0349 µM; in the assay on HCC827 it was 0.021 µM; in the assay with A549, 0.207 µM.
As to `COc1ccc(N(C)c2ncnc3ccsc23)cc1`, the IC50 in the assay with A2780 amounted to 0.0778 µM; in the assay with SK-OV-3 it was 0.0449 µM; with HCC827, 0.0492 µM; in the assay with A549, 0.0881 µM.
Regarding `COc1ccc(N(C)c2nc(Cl)nc3ccoc23)cc1`, the IC50 is 0.00628 µM with A2780, 0.00286 µM with SK-OV-3, 0.00464 µM with HCC827 and 0.00905 µM with A549.
With `COc1ccc(Oc2nc(Cl)nc3ccsc23)cc1`, the IC50 with A2780, with SK-OV-3, in the assay on HCC827 and with A549 was greater than 1 µM each time.
As for `COc1ccc(Nc2nc(Cl)nc3ccsc23)cc1`, the IC50 in the assay with A2780, with SK-OV-3, in the assay with HCC827 and in the assay on A549 was greater than 1 µM in each case.
